Columns and labels:
[1] = tested on: EC1010 CMY-6; assay: Aztreonam potentiation (MPC@4), strain EC1010 CMY-6; conditions: minimum BLI concentration inhibiting growth with aztreonam 4 μg/mL; tested up to 40 μg/mL
[2] = tested on: KP1010 SHV-12; assay: Aztreonam potentiation (MPC@4), strain KP1010 SHV-12; conditions: minimum BLI concentration inhibiting growth with aztreonam 4 μg/mL; tested up to 40 μg/mL
[3] = tested on: KP1004 KPC-2; assay: Aztreonam potentiation (MPC@4), strain KP1004 KPC-2; conditions: minimum BLI concentration inhibiting growth with aztreonam 4 μg/mL; tested up to 40 μg/mL
[4] = tested on: ec302 TEM-10; assay: Aztreonam potentiation (MPC@4), strain ec302 TEM-10; conditions: minimum BLI concentration inhibiting growth with aztreonam 4 μg/mL; tested up to 40 μg/mL
[5] = tested on: ECL1002; assay: Aztreonam potentiation (MPC@4), strain ECL1002; conditions: minimum BLI concentration inhibiting growth with aztreonam 4 μg/mL; tested up to 40 μg/mL
[6] = tested on: KP1086 OXA-48; assay: Biapenem potentiation (MPC@1), strain KP1086 OXA-48; format: cell-based; conditions: minimum BLI concentration inhibiting growth with biapenem 1 μg/mL; tested up to 40 μg/mL
Protocol: (§1) Biapenem was present in the test medium at 1 μg/mL. […] Table 3 summarizes the BLI potency of biapenem potentiation (MPC@1) for two strains overexpressing class A (KPC) and class D (OXA-48) carbapenemases. Biapenem MIC for each strain is also shown.

[7] = biological target: purified class A, C and D enzymes (β-lactamases) (Klebsiella pneumoniae, UniProt Q9F663); assay: biochemical; format: biochemical; conditions: purified KPC-2; nitrocefin (NCF) as reporter substrate
[8] = biological target: T1, purified class A, C and D enzymes (β-lactamases) (Acinetobacter baumannii, UniProt Q9L4P2); assay: biochemical; format: biochemical; conditions: purified OXA-23; nitrocefin (NCF) as reporter substrate
T1 construct: rows headed: Ki (OXA-23, NCF), uM; other: purified OXA-23; nitrocefin (NCF) as reporter substrate
T1 sequence (Q9L4P2 whole entry): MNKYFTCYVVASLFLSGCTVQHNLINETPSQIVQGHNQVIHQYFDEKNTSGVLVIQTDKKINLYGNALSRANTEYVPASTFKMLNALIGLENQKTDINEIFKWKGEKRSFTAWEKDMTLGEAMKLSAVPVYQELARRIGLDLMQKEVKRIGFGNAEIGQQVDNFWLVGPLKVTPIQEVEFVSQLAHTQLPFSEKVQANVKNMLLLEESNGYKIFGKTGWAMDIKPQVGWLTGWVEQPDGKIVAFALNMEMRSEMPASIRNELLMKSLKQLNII

[9] = biological target: T2, purified class A, C and D enzymes (β-lactamases) (Pseudomonas aeruginosa, UniProt P24735); assay: biochemical; format: biochemical
T2 construct: rows headed: Ki (Pa-AmpC, NCF), uM; other: purified Pa-AmpC; nitrocefin (NCF) as reporter substrate
T2 sequence (P24735 whole entry): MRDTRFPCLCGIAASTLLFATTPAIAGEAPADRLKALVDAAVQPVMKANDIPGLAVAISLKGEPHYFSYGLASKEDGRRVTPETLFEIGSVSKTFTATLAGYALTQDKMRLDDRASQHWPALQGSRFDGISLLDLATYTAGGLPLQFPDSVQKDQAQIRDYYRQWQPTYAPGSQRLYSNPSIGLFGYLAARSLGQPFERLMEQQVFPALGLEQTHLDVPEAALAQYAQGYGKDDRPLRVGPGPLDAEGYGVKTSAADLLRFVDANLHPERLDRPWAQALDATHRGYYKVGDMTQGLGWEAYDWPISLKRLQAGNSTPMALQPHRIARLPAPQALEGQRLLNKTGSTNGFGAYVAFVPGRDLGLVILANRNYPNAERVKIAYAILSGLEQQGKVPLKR

[10] = biological target: purified class A, C and D enzymes (β-lactamases) (Klebsiella pneumoniae, UniProt Q6XEC0); assay: biochemical; format: biochemical; conditions: purified OXA-48; nitrocefin (NCF) as reporter substrate
[11] = biological target: purified class A, C and D enzymes (β-lactamases) (Escherichia coli, UniProt Q9L5C7); assay: biochemical; format: biochemical; conditions: purified CTX-M-14; nitrocefin (NCF) as reporter substrate
Sequence of purified class A, C and D enzymes (β-lactamases) (Escherichia coli, UniProt Q9L5C7) (Q9L5C7 entry or part of it): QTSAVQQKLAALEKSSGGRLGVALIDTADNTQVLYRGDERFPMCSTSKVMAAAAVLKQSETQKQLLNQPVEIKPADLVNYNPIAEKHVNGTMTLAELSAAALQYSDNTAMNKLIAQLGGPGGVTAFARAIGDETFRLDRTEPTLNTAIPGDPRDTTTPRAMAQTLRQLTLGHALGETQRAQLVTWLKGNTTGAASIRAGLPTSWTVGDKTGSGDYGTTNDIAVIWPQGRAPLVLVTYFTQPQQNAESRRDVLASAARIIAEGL

[12] = biological target: purified class A, C and D enzymes (β-lactamases) (Enterobacter cloacae, UniProt P05364); assay: biochemical; format: biochemical
Sequence of purified class A, C and D enzymes (β-lactamases) (Enterobacter cloacae, UniProt P05364) (P05364 21-381): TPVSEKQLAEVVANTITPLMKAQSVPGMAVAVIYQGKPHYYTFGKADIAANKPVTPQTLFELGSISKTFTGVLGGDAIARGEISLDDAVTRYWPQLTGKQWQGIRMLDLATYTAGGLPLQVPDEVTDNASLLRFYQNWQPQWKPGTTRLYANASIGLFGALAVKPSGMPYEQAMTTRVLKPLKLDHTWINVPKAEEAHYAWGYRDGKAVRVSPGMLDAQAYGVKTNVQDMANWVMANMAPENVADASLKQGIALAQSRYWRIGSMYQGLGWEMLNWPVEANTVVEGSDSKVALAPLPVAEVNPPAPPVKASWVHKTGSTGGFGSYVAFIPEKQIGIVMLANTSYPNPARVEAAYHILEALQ

[13] = tested on: AB1053 OXA-72; assay: Meropenem potentiation (MPC@8), strain AB1053 OXA-72; format: cell-based, Acinetobacter baumannii; conditions: minimum BLI concentration inhibiting growth with meropenem 8 μg/mL; tested up to 20 μg/mL
[14] = tested on: KP1005 CTX-M-14; assay: Tigemonam potentiation (MPC@4), strain KP1005 CTX-M-14; conditions: minimum BLI concentration inhibiting growth with tigemonam 4 μg/mL; tested up to 40 μg/mL
[15] = tested on: KP1009 CTX-M-15; assay: Aztreonam potentiation (MPC@4), strain KP1009 CTX-M-15; conditions: minimum BLI concentration inhibiting growth with aztreonam 4 μg/mL; tested up to 40 μg/mL
[16] = tested on: AB1054 OXA-23; assay: Meropenem potentiation (MPC@8), strain AB1054 OXA-23; format: cell-based, Acinetobacter baumannii; conditions: minimum BLI concentration inhibiting growth with meropenem 8 μg/mL; tested up to 20 μg/mL
[17] = tested on: ec308 SHV-5; assay: Aztreonam potentiation (MPC@4), strain ec308 SHV-5; conditions: minimum BLI concentration inhibiting growth with aztreonam 4 μg/mL; tested up to 40 μg/mL
[18] = tested on: KP1004 KPC-2; assay: Biapenem potentiation (MPC@1), strain KP1004 KPC-2; format: cell-based; conditions: minimum BLI concentration inhibiting growth with biapenem 1 μg/mL; tested up to 40 μg/mL
Protocol: as §1

Compound | AZT MPC4 CMY-6 EC1010 [1] | AZT MPC4 SHV-12 KP1010 [2] | AZT MPC4 KPC-2 KP1004 [3] | AZT MPC4 TEM-10 ec302 [4] | AZT MPC4 ECL1002 [5] | BPM MPC1 OXA-48 KP1086 [6] | Ki (KPC-2, NCF), uM [7] | Ki [8] | Ki [9] | Ki (OXA-48, NCF), uM [10] | Ki (CTX-M-14, NCF), uM [11] | Ki (P99, NCF), uM [12] | MPM MPC8 AB1053 OXA-72 [13] | TIG MPC4 CTX-M-14 KP1005 [14] | AZT MPC4 CTX-M-15 KP1009 [15] | MPM MPC8 AB1054 OXA-23 [16] | AZT MPC4 SHV-5 ec308 [17] | BPM MPC1 KP1004 KPC-2 [18]
[2H]C1([2H])Cc2ccc(OC)c(C(=O)[O-])c2O[B-]1(O)O.[Na+].[Na+] [Compound 60, Disodium; 3,3-dideuterio-4,4-dihydroxy-8-methoxy-5-oxa-4-boranuidabicyclo[4.4.0]deca-1(10),6,8-triene-7-carboxylate] | X (X = MPC@4 ≤ 5 μg/mL) | X (X = MPC@4 ≤ 5 μg/mL) | X (X = MPC@4 ≤ 5 μg/mL) | X (X = MPC@4 ≤ 5 μg/mL) | X (X = MPC@4 ≤ 5 μg/mL) | X (X = MPC@1 ≤ 5 μg/mL) | X (X = Ki ≤ 0.1 μM) | < 100 nM | < 100 nM | X (X = Ki ≤ 0.1 μM) | X (X = Ki ≤ 0.1 μM) | X (key: X = Ki ≤ 0.1 μM; Y = 0.1 μM < Ki ≤ 1 μM; Z = Ki > 1 μM) | X (X = MPC@1 ≤ 5 μg/mL) | X (X = MPC@4 ≤ 5 μg/mL) | X (X = MPC@4 ≤ 5 μg/mL) | X (X = MPC@1 ≤ 5 μg/mL) | X (X = MPC@4 ≤ 5 μg/mL) | X (X = MPC@1 ≤ 5 μg/mL)
CON=Cc1ccc2c(c1C(=O)[O-])O[B-](O)(O)CC2.[Na+].[Na+] [Compound 55, Disodium; 4,4-dihydroxy-8-(methoxyiminomethyl)-5-oxa-4-boranuidabicyclo[4.4.0]deca-1(6),7,9-triene-7-carboxylate] | X (X = MPC@4 ≤ 5 μg/mL) | X (X = MPC@4 ≤ 5 μg/mL) | X (X = MPC@4 ≤ 5 μg/mL) | X (X = MPC@4 ≤ 5 μg/mL) | X (X = MPC@4 ≤ 5 μg/mL) | X (X = MPC@1 ≤ 5 μg/mL) | X (X = Ki ≤ 0.1 μM) | < 100 nM | < 100 nM | X (X = Ki ≤ 0.1 μM) | X (X = Ki ≤ 0.1 μM) | X (key: X = Ki ≤ 0.1 μM; Y = 0.1 μM < Ki ≤ 1 μM; Z = Ki > 1 μM) | Z (Z = MPC@1 > 20 μg/mL) | Z (Z = MPC@4 > 20 μg/mL) | X (X = MPC@4 ≤ 5 μg/mL) | Z (Z = MPC@1 > 20 μg/mL) | X (X = MPC@4 ≤ 5 μg/mL) | X (X = MPC@1 ≤ 5 μg/mL)
O=C([O-])c1c(OCC#CCN2CCC2)ccc2c1O[B-](O)(O)CC2.[Na+].[Na+] [Compound 62, Disodium; 8-[4-(azetidin-1-yl)but-2-ynoxy]-4,4-dihydroxy-5-oxa-4-boranuidabicyclo[4.4.0]deca-1(6),7,9-triene-7-carboxylate] | X (X = MPC@4 ≤ 5 μg/mL) | X (X = MPC@4 ≤ 5 μg/mL) | X (X = MPC@4 ≤ 5 μg/mL) | X (X = MPC@4 ≤ 5 μg/mL) | X (X = MPC@4 ≤ 5 μg/mL) | X (X = MPC@1 ≤ 5 μg/mL) | X (X = Ki ≤ 0.1 μM) | < 100 nM | < 100 nM | X (X = Ki ≤ 0.1 μM) | X (X = Ki ≤ 0.1 μM) | X (key: X = Ki ≤ 0.1 μM; Y = 0.1 μM < Ki ≤ 1 μM; Z = Ki > 1 μM) | X (X = MPC@1 ≤ 5 μg/mL) | Y (Y = 5 μg/mL < MPC@4 ≤ 20 μg/mL) | X (X = MPC@4 ≤ 5 μg/mL) | X (X = MPC@1 ≤ 5 μg/mL) | X (X = MPC@4 ≤ 5 μg/mL) | X (X = MPC@1 ≤ 5 μg/mL)
O=C([O-])c1c(CSC2CNC2)ccc2c1O[B-](O)(O)CC2.[Na+].[Na+] [Compound 19, Disodium; 8-(azetidin-3-ylsulfanylmethyl)-4,4-dihydroxy-5-oxa-4-boranuidabicyclo[4.4.0]deca-1(6),7,9-triene-7-carboxylate] | X (X = MPC@4 ≤ 5 μg/mL) | X (X = MPC@4 ≤ 5 μg/mL) | X (X = MPC@4 ≤ 5 μg/mL) | Y (Y = 5 μg/mL < MPC@4 ≤ 20 μg/mL) | Y (Y = 5 μg/mL < MPC@4 ≤ 20 μg/mL) | X (X = MPC@1 ≤ 5 μg/mL) | X (X = Ki ≤ 0.1 μM) | < 100 nM | < 100 nM | X (X = Ki ≤ 0.1 μM) | X (X = Ki ≤ 0.1 μM) | X (key: X = Ki ≤ 0.1 μM; Y = 0.1 μM < Ki ≤ 1 μM; Z = Ki > 1 μM) | X (X = MPC@1 ≤ 5 μg/mL) | Z (Z = MPC@4 > 20 μg/mL) | X (X = MPC@4 ≤ 5 μg/mL) | X (X = MPC@1 ≤ 5 μg/mL) | X (X = MPC@4 ≤ 5 μg/mL) | X (X = MPC@1 ≤ 5 μg/mL)
O=C([O-])c1c(CSc2nncs2)ccc2c1O[B-](O)(O)CC2.[Na+].[Na+] [Compound 20, Disodium; 4,4-dihydroxy-8-(1,3,4-thiadiazol-2-ylsulfanylmethyl)-5-oxa-4-boranuidabicyclo[4.4.0]deca-1(6),7,9-triene-7-carboxylate] | X (X = MPC@4 ≤ 5 μg/mL) | X (X = MPC@4 ≤ 5 μg/mL) | X (X = MPC@4 ≤ 5 μg/mL) | X (X = MPC@4 ≤ 5 μg/mL) | X (X = MPC@4 ≤ 5 μg/mL) | X (X = MPC@1 ≤ 5 μg/mL) | X (X = Ki ≤ 0.1 μM) | < 100 nM | < 100 nM | X (X = Ki ≤ 0.1 μM) | X (X = Ki ≤ 0.1 μM) | X (key: X = Ki ≤ 0.1 μM; Y = 0.1 μM < Ki ≤ 1 μM; Z = Ki > 1 μM) | Y (Y = 5 μg/mL < MPC@1 ≤ 20 μg/mL) | Y (Y = 5 μg/mL < MPC@4 ≤ 20 μg/mL) | X (X = MPC@4 ≤ 5 μg/mL) | Y (Y = 5 μg/mL < MPC@1 ≤ 20 μg/mL) | X (X = MPC@4 ≤ 5 μg/mL) | X (X = MPC@1 ≤ 5 μg/mL)
O=C([O-])c1c(O)ccc2c1O[B-](O)(O)CC2.[Na+].[Na+] [Compound 42, Disodium; 4,4,8-trihydroxy-5-oxa-4-boranuidabicyclo[4.4.0]deca-1(6),7,9-triene-7-carboxylate] | Z (Z = MPC@4 > 20 μg/mL) | X (X = MPC@4 ≤ 5 μg/mL) | Y (Y = 5 μg/mL < MPC@4 ≤ 20 μg/mL) | Y (Y = 5 μg/mL < MPC@4 ≤ 20 μg/mL) | Z (Z = MPC@4 > 20 μg/mL) | X (X = MPC@1 ≤ 5 μg/mL) | X (X = Ki ≤ 0.1 μM) | 100 to 1000 nM | 100 to 1000 nM | X (X = Ki ≤ 0.1 μM) | X (X = Ki ≤ 0.1 μM) | Y (key: X = Ki ≤ 0.1 μM; Y = 0.1 μM < Ki ≤ 1 μM; Z = Ki > 1 μM) | Z (Z = MPC@1 > 20 μg/mL) | Z (Z = MPC@4 > 20 μg/mL) | Z (Z = MPC@4 > 20 μg/mL) | Z (Z = MPC@1 > 20 μg/mL) | Y (Y = 5 μg/mL < MPC@4 ≤ 20 μg/mL) | X (X = MPC@1 ≤ 5 μg/mL)

Source: patent publication US10618918B2, “Substituted boronic acids as antimicrobials” (priority 2015, dated 2020)
